Results reported in patent publication US7259185B2 (priority 2005, dated 2007).
“And” between values parts separate entries of the source, which are not always exact repeats. Identical values can stand only once. “Also recorded” adds a separate entry of the source. Like-named read-outs stand apart in the source and are kept apart here.

What was measured:
[1] = in vivo; cited from earlier work
[2] = pH 9 carbonate buffer, after approximately 1 week at 50° C.
[3] = for Color change: 50° C.
[4] = pH buffer of pH between 8 and 9, room temperature
Description: In a more preferred embodiment, pH of about 8 to 9, is provided. For example, a buffer close to a pH of about 8.3 can be used.

[5] = type: physicochemical; details: 6 mg dose, no pepsin, after 24 hours
Experimental: A 250 mL volumetric flask was used to simulate the capacity of stomach gastric volume, and a pH 1.5 HCl buffer (0.8% NaCl, 0.04% CaCl2) was used for the simulated gastric fluid (SGF).

[6] = buffer at pH 7, glycerin increased to 35% by volume
[7] = 2 mg/mL in pH 7 phosphate buffer (100 mM), RT

Question: For CC(=O)CC(c1ccccc1)c1c(O)c2ccccc2oc1=O (racemic) [warfarin], which “apparent Vd” value [1] is on record?
Answer: Its value is 0.13 L/kg.

Question: With CC(=O)CC(c1ccccc1)c1c([O-])c2ccccc2oc1=O.[Na+] (stereo not shown) [warfarin sodium, 4-hydroxy-3-(3-oxo-1-phenylbutyl)-2H-1-benzopyran-2one sodium salt] as the molecule, how does the Color change [2] read?
Answer: Its Color change is “slight yellowing”.

Question: And the Color change ([3]; 1:1 mixture with ethanol, pH 8 buffer)?
Answer: The Color change was “No color change”.

Question: And the Color change ([3]; 1:1 mixture with glycerin, pH 8 buffer)?
Answer: Its Color change is “No color change”.

Question: And the “% degradation of warfarin sodium” value ([3]; Phosphate buffer pH 8 alone, 1 month at 50° C.)?
Answer: The value was 1.4%.

Question: What about the Color change ([3]; Phosphate buffer pH 8 alone) of the same molecule?
Answer: Its Color change is “Light yellow”.

Question: What about the Color change ([3]; pH 8 buffer with Liquid sugar (50% v/v), sodium salt) of the same molecule?
Answer: Its Color change is “slight yellow color change”.

Question: What about the “% degradation of warfarin sodium” value ([3]; pH 8 buffer with Liquid sugar (50% v/v), after 312 hr at 50° C.) of the same molecule?
Answer: The value was 2.4 (after 312 hr) %.

Question: What about the Color change ([3]; pH 8 buffer with Mannitol (5% w/v), sodium salt) of the same molecule?
Answer: Its Color change is “slight yellow color change; also recorded: Light yellow”.

Question: What about the “% degradation of warfarin sodium” value ([3]; pH 8 buffer with Mannitol (5% w/v), after 384 hr at 50° C.) of the same molecule?
Answer: The value was 1.9 (after 384 hr) %.

Question: And the “% degradation of warfarin sodium” value ([3]; pH 8 buffer with Saccharin (0.5% w/v), 1 month at 50° C.)?
Answer: The value was 3.3%.

Question: What about the Color change ([3]; pH 8 buffer with Saccharin (0.5% w/v), sodium salt) of the same molecule?
Answer: Its Color change is “slight yellow color change; also recorded: Light yellow”.

Question: What about the “% degradation of warfarin sodium” value ([3]; pH 8 buffer with Sorbitol (50% v/v), 1 month at 50° C.) of the same molecule?
Answer: The value was 2.9%.

Question: And the Color change ([3]; pH 8 buffer with Sorbitol (50% v/v), sodium salt)?
Answer: Its Color change is “slight yellow color change; also recorded: Light yellow”.

Question: And the “% degradation of warfarin sodium” value ([3]; pH 8 buffer with TWEEN 80 (0.5% v/v), 1 month at 50° C.)?
Answer: Its value is 5.1%.

Question: What about the precipitation [4] of the same molecule?
Answer: The precipitation was “free of precipitation for at least one month”.

Question: And the “precipitation of warfarin sodium in SGF” value [5]?
Answer: Its value is “precipitate out of solution”.

Question: What about the precipitation of warfarin [6] of the same molecule?
Answer: Its precipitation of warfarin is “prevents precipitation”.

Question: And the Warfarin concentration ([7]; time 0.017 hr)?
Answer: Its Warfarin concentration is 1.846 mg/mL.

Question: And the Warfarin concentration ([7]; time 0.083 hr)?
Answer: The Warfarin concentration was 1.819 mg/mL.

Question: What about the Warfarin concentration ([7]; time 0.167 hr) of the same molecule?
Answer: The Warfarin concentration was 1.796 mg/mL.

Question: And the Warfarin concentration ([7]; time 0.333 hr)?
Answer: The Warfarin concentration was 1.847 mg/mL.

Question: And the Warfarin concentration ([7]; time 0.5 hr)?
Answer: Its Warfarin concentration is 1.844 mg/mL.

Question: What about the Warfarin concentration ([7]; time 1 hr) of the same molecule?
Answer: The Warfarin concentration was 1.8765 mg/mL.

Question: What about the Warfarin concentration ([7]; time 3 hr) of the same molecule?
Answer: The Warfarin concentration was 1.858 mg/mL.

Question: What about the Warfarin concentration ([7]; time 5 hr) of the same molecule?
Answer: Its Warfarin concentration is 1.804 mg/mL.

Question: And the Warfarin concentration ([7]; time 10 hr)?
Answer: The Warfarin concentration was 1.822 mg/mL.

Question: And the Warfarin concentration ([7]; time 13.5 hr)?
Answer: The Warfarin concentration was 2.0099 mg/mL.

Question: What about the Warfarin concentration ([7]; time 17.25 hr) of the same molecule?
Answer: Its Warfarin concentration is 1.97 mg/mL.

Question: What about the Warfarin concentration ([7]; time 48 hr) of the same molecule?
Answer: The Warfarin concentration was 1.113 mg/mL.

Question: What about the Warfarin concentration ([7]; time 192 hr, sodium salt) of the same molecule?
Answer: The Warfarin concentration was 0.357 mg/mL and 0.362 mg/mL.
